Test results from US4693998A, “Novel compounds of the muramyl peptide” (Agence Nationale de Valorisation de la Rechersche, priority 1978, dated 1987).

Assays:
[1] = Pyrogenicity: maximum temperature variation in rabbits during three hours after administration; assay type: in vivo, rabbit; settings: three hours following administration
Method: In the course of tests on rabbits, the maximum temperature variations during the three hours following administration were followed. For doses as high as 5 mg/kg or more of product, no significant variation in temperature is observed. Thus the average rise in temperature for administration to rabbits, for different esters of Mur-NAc-L-Ala-D-Gln is: […]

[2] = system: bovine serum albumin (BSA) antibodies; experiment: Adjuvant character in the aqueous phase: anti-albumin antibodies by passive hemagglutination; assay type: in vivo, Swiss mice; settings: for Antibody Titer Secondary Response / Antibody Titer Primary Response: Swiss mice, 100 μg s.c. with 0.5 mg BSA in isotonic saline; for Antibody Titer Secondary Response: after booster 0.1 mg BSA at 30 days; for Antibody Titer Primary Response: maximum serum dilution agglutinating; for level of antibodies formed: administered in isotonic saline solution
Method: In this series of trials of which the results are indicated below, the influence of the active principle according to the invention on the level of anti-albumin antibodies under the following conditions, were studied.
Groups of 8 Swiss mice aged two months received, by sub-cutaneous injection, 0.5 mg of antigen constituted by bovine serum albumin (BSA) with or without the tested substance in isotonic saline solution. This high dose of antigen, because it is situated at the limit of the paralysing dose with respect to the immune response, results for this reason, in a weak or nil response to the antigen alone in the controls; it therefore constitutes a severe criterion for establishing the activity of an adjuvant substance. Thirty days later, the mice received, by the same route of administration, a booster containing 0.1 mg of the same antigen.
By way of comparison, the adjuvant effect was studied simultaneously of 2-(2-acetamido-2-deoxy-3-O-D-glucopyranosyl)-D-propionyl-L-alanyl-D-isoglutamine (MDP) known for its adjuvant properties.
The antibody level is determined by passive hemagglutination using sheep's red blood cells treated with formalin and covered with the antigen studied according to the method described by A. A. HIRATA and M. W. BRANDISS (J. Immunol., 100, 641-648, 1968). Samples were taken respectively after the first injection of antigen and after injection of the booster to determine the primary and secondary responses.
The antibody titers express the maximum serum dilution agglutinating a given amount of sheep's red blood cells.

[3] = system: ovalbumin specific antibodies / delayed hypersensitivity; experiment: Adjuvant character in the presence of an oily phase (FIA): ovalbumin antibodies and delayed hypersensitivity; assay type: in vivo, Hartley guinea pigs; settings: for delayed hypersensitivity reaction / level of antibodies formed: administered in an oily emulsion; for Serum Antibodies / Cutaneous test (diameter in mm): guinea pigs; for Serum Antibodies: 0.1 mg in FIA emulsion with 1 mg ovalbumin, intradermal, day 21, nitrogen precipitatable by the antigen; for Cutaneous test (diameter in mm): 0.1 mg in FIA emulsion, 0.01 mg ovalbumin intradermal at day 18, read 48 hours later
Method: In these tests, the growth of the specific antibody level of a given antigen is followed when the latter is injected, with or without the adjuvant compound according to the invention, in a water in oil emulsion.
The tests were carried out on batches of 6 female Hartley guinea pigs of 350 g. The administration was done by intradermal injection into the plantar pad of each of the rear paws. The ovalbumin (constituting the antigen) at the dose of 1 mg is prepared in 0.1 ml of a saline isotonic solution emulsion, in an oily phase constituted by the Freund incomplete adjuvant (FIA). The compound according to the invention is administered at the dose of 0.1 mg added in the emulsion containing the FIA.
As previously, by way of comparison, a test was carried out with MDP in place of the product according to the invention.
Eighteen days after this immunization, possible reactions are sought of delayed hypersensitivity to the antigen by injecting by the intradermal route 0.01 mg of ovalbumin into the side of the animals, and there was observed, 48 hours later, the reaction at the point of injection. The diameter in millimeters of the reaction thus-caused was measured.
Twenty-one days after the injection, the animals were bled. In the serum collected, the content is measured of specific antibodies of ovalbumin by precipitation of the antibody-antigen complex in the equivalence zone. The amount of protein nitrogen contained in this precipitate was estimated by the method of Folin. These values express the amount, in micrograms, of nitrogen precipitatable by the antigen, per […] of serum.

Klebsiella pneumoniae = experiment: Anti-infection activity with respect to Klebsiella (mouse survival); assay type: in vivo; settings: for anti-infectious activity: higher percentage of survivors than control group
From the text: The testing procedure is described in the article CHEDID L. et col., Proc. Natl. Acad. Sci. USA 1977, 74: 2089.
It was shown that a dose of 1 to 2.10^4 Klebsiella pneumoniae, injected by the intramuscular route to mice, results in the progressive death of a considerable part, if not of the whole, of the animals in the week following inoculation. After eight days, the survival of the remaining animals is finally achieved.
The survival of groups of mice inoculated under the above-indicated conditions and treated by means of the products according to the invention, was followed.
For these tests, hybrid mice (C571B1/6×AKR)F1 raised at the INSTITUT PASTEUR were used, there mice being raised from strains coming from the C.N.R.S. breeding station at ORLEANS.
Infection by Klebsiella pneumoniae, capsular type 2, biotype d, strain was effected with a 16 hour culture in medium for pneumococci (No. 53515, INSTITUT PASTEUR) was effected. The infecting dose was 2.10^4 Klebsiella; it was administered by the intramuscular route.
The administration of the tested product is effected by the intravenous route in 0.2 ml of apyrogenic physiological solution, the controls receiving the solution alone. It is carried out 24 hours before the inoculation.

total blood = experiment: Influence on coagulation mechanisms: recalcification coagulation time after incubation with total blood; assay type: cell-based, rabbit; settings: for coagulation time: 100 μg per 1 ml total blood; for effect on coagulation: contrary to LPS
From the text: It is known, from recent studies, that compounds having adjuvant properties like LPS can have side effects. Thus it has been observed in the rabbits that the administration of LPS has a tendency to shorten the coagulation time. The reasons for this phenomena are not fully known; nonetheless, it has seemed useful to determine the effect of the products according to the invention on coagulation under the same conditions.
For these tests, the test described by LERNER et col. in Thrombosis Research, Vol. 11, pp. 253-261, 1977, "Endotoxin induced disseminated intravascular clotting: evidence that it is mediated by neutrophile production of tissue factor", was used.
The total blood was divided into two portions of which one was centrifuged to obtain platelet-free plasma (PFP).
1 ml of total blood was incubated in a plastic tube in the presence of 100 μg of the product to be tested.
Tubes were also prepared containing 0.1 ml of PFP to which every hour, from 0 to 5 hours, were added 0.1 ml of incubation mixture, then these were recalcified by 0.1 ml of 0.025M calcium chloride.
The coagulation time was noted and the pro-coagulating activity was deduced therefrom as a function of the shortening of the coagulation time with respect to the control, physiological water. The result was compared with that of a highly pro-coagulant reference standard, the LPS.
The coagulation times are expressed in seconds.

[4] = cited from earlier work
[5] = in vivo; cited from earlier work

Row | Compound | average rise in temperature ([1]; at 10 mg/kg) | Antibody Titer Secondary Response [2] | Antibody Titer Primary Response [2] | level of antibodies formed [2] | delayed hypersensitivity reaction [3] | level of antibodies formed [3] | Serum Antibodies [3] | Cutaneous test (diameter in mm) [3] | anti-infectious activity (Klebsiella pneumoniae) | coagulation time (total blood; incubation 0 h) | coagulation time (total blood; incubation 2 h) | coagulation time (total blood; incubation 3 h) | coagulation time (total blood; incubation 4 h) | coagulation time (total blood; incubation 5 h) | effect on coagulation (total blood) | other results
1 | n-butyl ester of N-acetyl-muramyl-L-alanyl-D-glutamine [Mur--NAc--L-Ala--D-Glu(NH2)--OC4 H9] | 0.30 °C | 600 ± 200 | 12 | considerable increase in the level of antibodies formed | induces a delayed hypersensitivity reaction | very considerable increase in the level of antibodies formed | 2,000 μg/ml | 8 mm | anti-infectious activity | 129 s | 120 s | 122 s | 114 s | 108 s | do not accelerate coagulation | % Protection (Klebsiella pneumoniae; mice, 2.10^4 Klebsiella i.m., product i.v. 24 hours before inoculation): 63%; % Survival D3 (Klebsiella pneumoniae; mice, 2.10^4 Klebsiella i.m., product i.v. 24 hours before inoculation, day 3): 92%; % Survival D5 (Klebsiella pneumoniae; mice, 2.10^4 Klebsiella i.m., product i.v. 24 hours before inoculation, day 5): 75%; % Survival D10 (Klebsiella pneumoniae; mice, 2.10^4 Klebsiella i.m., product i.v. 24 hours before inoculation, day 10): 75%
2 | COC(=O)CC[C@@H](NC(=O)[C@H](C)NC(=O)C(C)O[C@H]1[C@H](O)[C@@H](CO)O[C@H](O)[C@@H]1NC(C)=O)C(=O)OC (stereo partly drawn) [dimethyl ester of N-acetyl-muramyl-L-alanyl-D-glutamic acid] | – | – | – | – | – | – | – | – | – | – | – | – | – | – | – | adjuvant activity in oil compared with γ-methylester of N-acetyl-muramyl-L-alanyl-D-isoglutamine ([4]; in oil, ADAM et coll. 1976): lesser adjuvant activity in oil
3 | CC(=O)N[C@H]1C(O)O[C@H](CO)[C@@H](O)[C@@H]1O[C@H](C)C(=O)N[C@@H](C)C(=O)N[C@H](CCC(N)=O)C(N)=O (stereo partly drawn) [diamide of N-acetyl-muramyl-L-alanyl-D-glutamic acid] | – | – | – | – | – | – | – | – | – | – | – | – | – | – | – | adjuvant activity compared with N-acetyl-muramyl-L-alanyl-D-isoglutamine ([4]; in vivo): less active; pyrogenicity [5]: very low level of pyrogenicity
4 | CCCCCCCCCCOC(=O)C(CCC(N)=O)NC(=O)C(C)NC(=O)C(C)OC1C(O)C(CO)OC(O)C1NC(C)=O [decyl ester, n-decyl ester of N-acetyl-muramyl-L-alanyl-D-glutamine] | 0.23 °C | – | – | – | – | – | – | – | anti-infectious activity | – | – | – | – | – | – | –
5 | CC(=O)N[C@@H]1[C@@H](O[C@H](C)C(=O)N[C@@H](C)C(=O)N[C@H](CCC(=O)O)C(N)=O)[C@H](O)[C@@H](CO)O[C@H]1O [MDP, 2-(2-acetamido-2-deoxy-3-O-D-glucopyranosyl)-D-propionyl-L-alanyl-D-isoglutamine, reference compound] | – | 300 ± 100 | 50 | – | – | – | 5,000 μg/ml | 15 mm | – | – | – | – | – | – | – | –
6 | COC(=O)[C@@H](CCC(N)=O)NC(=O)[C@H](C)NC(=O)[C@@H](C)O[C@H]1[C@H](O)[C@@H](CO)OC(O)[C@@H]1NC(C)=O (stereo partly drawn) [Mur--NAc--L-Ala--D-Glu(NH2)--OCH3, Methyl ester of N-acetyl-muramyl-L-alanyl-D-glutamine] | – | 500 ± 150 | 100 | considerable increase in the level of antibodies formed | induces a delayed hypersensitivity reaction | very considerable increase in the level of antibodies formed | 6,000 μg/ml | 17 mm | – | 125 s | 118 s | 109 s | 110 s | 104 s | do not accelerate coagulation | average rise in temperature ([1]; at 5 mg/kg): 0.53 °C
